Measured values as given in PubChem BioAssay (NCI).
Values joined by “and” are separate entries in the source; they are usually repeats but may differ in a detail not shown here. Equal values may be shown once.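 Cultured in 96-well plates, cells were exposed to test compound for 48 hours across five concentrations. GI50 marks 50% less growth. TGI: total growth inhibition.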

Tests used:
Experiment in all cases: NCI tumour cell line growth inhibition, 48 h
HCT-116 colon = test system: HCT-116 colon
SK-MEL-28 melanoma = test system: SK-MEL-28 melanoma
786-0 renal = test system: 786-0 renal
HS 578T breast = test system: HS 578T breast
COLO 205 colon = test system: COLO 205 colon
SR leukemia = test system: SR leukemia
BT-549 breast = test system: BT-549 breast
K-562 leukemia = test system: K-562 leukemia
LXFL 529 NSCLC = test system: LXFL 529 NSCLC
M19-MEL melanoma = test system: M19-MEL melanoma

Row | Structure (SMILES) | GI50 (HCT-116 colon) | TGI (HCT-116 colon) | GI50 (SK-MEL-28 melanoma) | TGI (SK-MEL-28 melanoma) | GI50 (786-0 renal) | TGI (786-0 renal) | GI50 (HS 578T breast) | TGI (HS 578T breast) | GI50 (COLO 205 colon) | TGI (COLO 205 colon) | GI50 (SR leukemia) | TGI (SR leukemia) | GI50 (BT-549 breast) | TGI (BT-549 breast) | GI50 (K-562 leukemia) | TGI (K-562 leukemia) | TGI (LXFL 529 NSCLC) [µM] | TGI (M19-MEL melanoma) [µM]
1 | COc1ccc(/C=C/C(=O)/C=C/c2cc3ccccc3[nH]c2=O)cc1 | 1.55 µM | 3.24 µM | 13.9 µM | 34.7 µM | 1.87 µM | 3.51 µM | 3.14 µM | 47 µM | 3.31 µM | 9.37 µM | 2.88 µM | 8.65 µM | 2.25 µM | 6.19 µM | 3.34 µM | > 100 µM | – | –
2 | Cc1ncc(C(=O)Nc2ccc(CN3CCN(C)CC3)c(C(F)(F)F)c2)cc1C#Cc1cnc2cccnn12 | 0.178 µM | 0.743 µM | 0.212 µM | 1.84 µM | 1.05 µM | 3.16 µM | 0.625 µM | 3.3 µM | 0.2 µM | 1.31 µM | 0.293 µM | 50 µM | 1.23 µM | 3.72 µM | 0.005 µM | 50 µM | – | –
3 | Cc1ccccc1NC(=O)c1cc(-c2ccc([N+](=O)[O-])cc2)nc(=S)[nH]1 | – | > 100 µM | – | > 100 µM | – | > 100 µM | – | – | – | > 100 µM | – | – | – | – | – | > 100 µM | > 100 | –
4 | CC(C)Nc1cc(-c2c[nH]c(C(=O)N[C@H](CO)c3cccc(Cl)c3)c2)c(Cl)cn1 | 0.154 µM and 0.162 µM | 11.4 µM and > 10 µM | 0.126 µM and 0.0718 µM | – | 2.85 µM and 3.23 µM | 18.3 µM and > 10 µM | 4.32 µM and > 9.06 µM | 60.5 µM and > 10 µM | 0.104 µM and 0.076 µM | 3.06 µM and 1.59 µM | 3.38 µM and 3.66 µM | 40.5 µM and > 10 µM | 3.19 µM and > 5.25 µM | 15.7 µM and > 10 µM | 3.35 µM | > 10 µM | – | –
5 | CCOC(=O)C(=O)Nc1ccccc1C | – | > 100 µM | – | > 100 µM | – | > 100 µM | – | – | – | > 100 µM | – | – | – | – | – | > 100 µM | > 100 | > 100
6 | COc1ccc(OC)c(NC(=O)CCC/C(CC(=O)c2ccc(O)c(OC)c2)=N\Nc2nnc(C)n2N)c1 | – | – | – | > 100 µM | – | > 100 µM | – | – | – | > 100 µM | – | > 100 µM | – | – | – | > 100 µM | > 100 | > 100
7 | N#Cc1ccccc1C(Cl)(Cl)c1cnccn1 | – | – | – | > 100 µM | – | 32.3 µM | – | – | – | > 100 µM | – | > 100 µM | – | – | – | > 100 µM | > 100 | > 100
8 | CCCCCCCCCCCCCCCCCC1=NC(C)(C)CN1CC(C)O (stereo not drawn) | 2.43 µM | 5.86 µM | 17.1 µM | 33.5 µM | 14.9 µM | 31.7 µM | 14 µM | 34.2 µM | 2.5 µM | 6.61 µM | 2.75 µM | > 100 µM | 19.7 µM | 40.9 µM | 2.45 µM | 5.44 µM | – | –
9 | O=C(Nc1cc(C(F)(F)F)ccc1Cl)c1ccc(NC2=C(Cl)C(=O)N(Cc3ccccc3)C2=O)cc1 | 17.2 µM | > 100 µM | 23.9 µM | 63.5 µM | 23.4 µM | > 100 µM | 31.9 µM | > 100 µM | 16 µM | 35.6 µM | 1.3 µM | 4.4 µM | 15 µM | 39.7 µM | 3.67 µM | 19.6 µM | – | –
10 | O=C1c2ccccc2-[n+]2ccc3c([nH]c4ccccc43)c21 | – | 0.51 µM | – | 1.16 µM | – | 2.58 µM | – | > 31.6 µM | – | 0.498 µM | – | 0.846 µM | – | 4.92 µM | – | 3.31 µM | – | –
11 | CC(C)c1cnn2c(NCc3ccccc3)cc(NC[C@H]3CCNC[C@@H]3O)nc12 | 0.168 µM and 0.158 µM | 10.9 µM and 10.8 µM | 0.388 µM and 0.343 µM | 2.43 µM and 2.41 µM | 0.547 µM and 0.779 µM | 12.3 µM and 12.2 µM | 0.839 µM and 1.38 µM | 4.63 µM and 5.41 µM | 0.179 µM and 0.21 µM | 0.476 µM and 0.749 µM | 0.0481 µM and 0.0623 µM | – | 1.81 µM and 1.27 µM | 4.4 µM and 3.08 µM | 0.409 µM and 0.571 µM | 11.3 µM and > 100 µM | – | –
12 | Nc1nonc1-c1nc2cnccc2n1C1CC1 | 5.62 µM | > 25 µM | 8.47 µM | > 20.9 µM | 5.44 µM | > 25 µM | 1.16 µM | 9.54 µM | 4.52 µM | > 14.4 µM | 3.81 µM | 15 µM | 3.85 µM | 19.2 µM | > 21 µM | > 25 µM | – | –
13 | COC(=O)/C=C(C)/C=C/C1OC(C)OCC1O (stereo not drawn) | – | – | – | – | – | > 100 µM | – | – | – | > 100 µM | – | – | – | – | – | > 100 µM | > 100 | > 100
14 | COc1ccc(NC(=O)/C(=C/c2ccccc2)C(C)=O)cc1 | – | – | – | 26.1 µM | – | 28.6 µM | – | – | – | 35.7 µM | – | – | – | – | – | > 100 µM | 24.9 | 29.9
15 | CCOC(=O)C(Cc1c[nH]c2c(N(CCO)CCO)cccc12)(NC(C)=O)C(=O)OCC | 412 µM | > 1000 µM | 736 µM | > 1000 µM | > 1000 µM | > 1000 µM | 302 µM | > 1000 µM | 330 µM | > 1000 µM | 144 µM | 890 µM | 564 µM | > 1000 µM | 194 µM | 516 µM | – | –
16 | Cn1c(-c2c(N)n(Nc3cccc(Cl)c3)c3nc(C#N)c(C#N)nc23)nc2ccccc21 | 8.54 µM | > 50 µM | 6.99 µM | 24.4 µM | 8.91 µM | 37.3 µM | 7.26 µM | 30.1 µM | 6.35 µM | 18.2 µM | 2.53 µM | 41.4 µM | 0.0816 µM | 1.97 µM | 5.43 µM | 25.5 µM | – | –
17 | COc1ccc2c(=O)cc(-c3ccccc3)[nH]c2c1 | 0.446 µM | > 100 µM | 7.84 µM | > 100 µM | 4.56 µM | > 100 µM | 0.758 µM | > 100 µM | 0.364 µM | 1.55 µM | 0.258 µM | – | 0.56 µM | > 27.7 µM | 0.439 µM | > 100 µM | – | –
18 | CCOC(=O)c1cc2cc3c4c(c2oc1=O)CCCN4CCC3 | – | 79 µM | – | > 100 µM | – | > 100 µM | – | 89.2 µM | – | 57.1 µM | – | > 100 µM | – | > 100 µM | – | > 100 µM | – | –
19 | O=C(Cc1nc2ccccc2c(=O)n1-c1ccccc1Cl)c1ccncc1 | – | > 100 µM | – | > 100 µM | – | > 100 µM | – | – | – | > 100 µM | – | – | – | – | – | > 100 µM | > 100 | > 100
